This is an account of results in patent publication US8952073B2, “Estrogenic compounds, process for their production and pharmaceutical uses thereof” (The University of Ottawa, priority 2008, dated 2015).

“And” between values parts separate entries of the source, which are not always exact repeats. Equal values may be shown once. Read-outs that look alike come from different tables or passages of the source.

For data set [1], the system named is ERβ vs. ERα. To be noted: literature values; cited from earlier work.
In data set [2] the target is T1, ERβ (Homo sapiens, UniProt Q92731). Kind of data set: Relative transcription assay (RTA), estrogen response element driven luciferase, estrogen beta receptor. Type of data set: cell-based. The conditions noted are these: for RTAβ: relative transcription activity, estradiol=100; for hormonal potency / transcriptional activation at ERβ, in words: result in words.
T1 sequence (Q92731 whole entry): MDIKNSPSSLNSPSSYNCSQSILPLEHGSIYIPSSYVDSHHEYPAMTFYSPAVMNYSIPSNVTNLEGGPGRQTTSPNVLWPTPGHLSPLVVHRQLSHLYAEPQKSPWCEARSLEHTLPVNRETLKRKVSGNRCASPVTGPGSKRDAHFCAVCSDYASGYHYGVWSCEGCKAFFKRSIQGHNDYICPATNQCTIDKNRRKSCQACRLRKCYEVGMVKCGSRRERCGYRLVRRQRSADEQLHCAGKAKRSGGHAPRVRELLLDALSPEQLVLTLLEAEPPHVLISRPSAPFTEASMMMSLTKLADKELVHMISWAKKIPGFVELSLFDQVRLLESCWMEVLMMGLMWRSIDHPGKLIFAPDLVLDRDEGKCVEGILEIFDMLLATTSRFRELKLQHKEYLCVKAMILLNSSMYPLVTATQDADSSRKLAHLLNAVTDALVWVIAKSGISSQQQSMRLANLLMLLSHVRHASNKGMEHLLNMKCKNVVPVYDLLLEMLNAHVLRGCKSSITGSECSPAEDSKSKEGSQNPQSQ
Data set [3] deals with T2, ERα (Homo sapiens, UniProt P03372).
T2 sequence (P03372 1-595): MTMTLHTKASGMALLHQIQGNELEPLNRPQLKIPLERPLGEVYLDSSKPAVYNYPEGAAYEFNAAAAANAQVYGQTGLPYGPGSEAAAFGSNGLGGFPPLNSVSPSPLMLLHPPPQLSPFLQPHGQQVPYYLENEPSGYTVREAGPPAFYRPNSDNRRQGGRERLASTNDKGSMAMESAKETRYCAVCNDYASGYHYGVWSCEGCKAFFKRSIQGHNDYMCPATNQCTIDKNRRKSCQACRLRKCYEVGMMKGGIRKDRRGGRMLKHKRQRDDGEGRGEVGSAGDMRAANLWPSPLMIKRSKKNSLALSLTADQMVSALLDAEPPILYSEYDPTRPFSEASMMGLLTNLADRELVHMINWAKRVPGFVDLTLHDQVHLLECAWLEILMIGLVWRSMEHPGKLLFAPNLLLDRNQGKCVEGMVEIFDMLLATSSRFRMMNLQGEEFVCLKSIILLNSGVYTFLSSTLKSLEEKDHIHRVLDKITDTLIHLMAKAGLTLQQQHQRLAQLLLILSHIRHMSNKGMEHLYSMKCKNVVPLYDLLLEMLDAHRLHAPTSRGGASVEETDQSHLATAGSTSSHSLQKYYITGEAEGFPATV
The data set is described as follows: Relative binding affinity (RBA), radiolabel competition assay, estrogen alpha receptor. To be noted: for RBAα: estradiol=100; for RBA for ERα: relative to estradiol (set at 100%).

Data set [4] concerns the target T1, ERβ. Kind of data set: Relative binding affinity (RBA), radiolabel competition assay, estrogen beta receptor. To be noted: for RBAβ: estradiol=100; for RBA for ERβ: relative to estradiol (set at 100%).
Data set [5] concerns the target T2, ERα. Kind of data set: Relative transcription assay (RTA), estrogen response element driven luciferase, estrogen alpha receptor. The data set is classed as cell-based. To be noted: for RTAα: relative transcription activity, estradiol=100.
Data set [6] in a line: in vitro.
In data set [7] the test system is intact hepatocytes. To be noted: read-out: LC50, 2 hour exposure.
The mark [8] stands for this setting: ring C saturated compounds, natural stereochemistry at C9.
[9] abbreviates: double bond in ring C (C9-C11 or C9-C8), tested as mixtures except entries 16, 17, 19, 20, 25, 26.
[10] abbreviates: double bond in ring C, mixtures except entries 16, 17, 19, 20, 25, 26.
[11] abbreviates: 9-hydroxy compounds, natural stereochemistry at C9.

For the compound `C=Cc1cc(O)cc2nc(-c3ccc(O)c(F)c3)oc12` [ERB-041], the “binding affinity ERβ/ERα ratio” value in data set [1] is 226.

For `C[C@]12CC[C@H](c3ccc(O)cc3)CC1CC[C@@H]2O` (stereo partly drawn) [Entry 1], in data set [2], the “Ratio RTAβ/RTAα” value came out at 38 and the RTAβ was found to be 164. For the same compound, the RTAβ in data set [2] (listed as 1*) came out at 7.7. The RBAα in data set [3] (setting [8]) is on record as 1.5. In addition, in data set [3], the “RBA for ERα” value is 1.7% and 1.5%. For the same compound, in data set [4] (ERβ over ERα), the “selective binding, favouring ERβ by a factor” value is given as 15. In data set [4] (setting [8]), this compound returned an RBAβ of 21.5 and an RBAβ/RBAα of 14.6. For the same compound, the “RBA for ERβ” value in data set [4] was 21.5%. Further, the RTAα in data set [5] stood at 4.3. In data set [5] (listed as 1*), the RTAα is given as −8.9. In data set [6] (intact hepatocytes), this compound returned a CC50 at 2 h of 320 to 400 µM.

For the compound `C[C@]12CC[C@H](c3ccc(O)c(F)c3)CC1CC[C@@H]2O` (stereo partly drawn) [Entry 2], in data set [2], the RTAβ was found to be 14 and the “hormonal potency / transcriptional activation at ERβ, in words” value is reported as “weak agonist for ERβ”. Also, the RBAα in data set [3] (setting [8]) worked out at 1.0. Moreover, the “RBA for ERα” value in data set [3] stood at 1.0%. In data set [4] (setting [8]), this compound had an RBAβ of 8.7 and an RBAβ/RBAα of 8.7. The “RBA for ERβ” value in data set [4] is recorded as 8%. The compound further showed an RTAα in data set [5] of −8.3. This compound also displayed a CC50 at 2 h in data set [6] (intact hepatocytes) of 400 to 450 µM.

In the case of `C[C@]12CC[C@H](c3ccc(O)cc3F)CC1CC[C@@H]2O` (stereo partly drawn) [Entry 3], in data set [2], the “Ratio RTAβ/RTAα” value is listed as 3.6; the RTAβ came to 162; the “hormonal potency / transcriptional activation at ERβ, in words” value was “both an ERα and an ERβ agonist”. The RBAα in data set [3] (setting [8]) came out at 27.3. In data set [4] (setting [8]), the RBAβ came to 135.5 and the RBAβ/RBAα was 5.0. Besides, the “RBA for the ERβ receptor compared with estradiol, in words” value in data set [4] (result in words) is reported as “exceeded that of estradiol itself”. The RTAα in data set [5] was 44. The “transcriptional activation at ERα, in words” value in data set [5] (result in words) was “both an ERα and an ERβ agonist”. In data set [6] (intact hepatocytes), the CC50 at 2 h was 250 to 280 µM.

For the compound `C[C@]12CC[C@H](c3cc(F)c(O)c(F)c3)CC1CC[C@@H]2O` (stereo partly drawn) [Entry 4], in data set [3] (setting [8]), the RBAα amounted to 0.4. In data set [4] (setting [8]), this compound displayed an RBAβ of 0.28 and an RBAβ/RBAα of 7.0.

Consider `C[C@]12CC[C@H](c3ccc(O)c(F)c3F)CC1CC[C@@H]2O` (stereo partly drawn) [Entry 5], for which, in data set [2], the “Ratio RTAβ/RTAα” value was 8.4 and the RTAβ stood at 151. Further, the RBAα in data set [3] (setting [8]) was determined as 4.6. In data set [4] (setting [8]), the RBAβ came to 42.8 and the RBAβ/RBAα came out at 9.3. This compound also came in with an RTAα in data set [5] of 18. In addition, the CC50 at 2 h in data set [6] (intact hepatocytes) lay within 155 to 200 µM.

Turning to `C[C@]12CC[C@H](c3cc(F)c(O)c(F)c3F)CC1CC[C@@H]2O` (stereo partly drawn) [Entry 7], in data set [2], the “Ratio RTAβ/RTAα” value was found to be 4.8 and the RTAβ came out at 53. For the same compound, in data set [7], the CC50 is above 600 µM. The compound further came in with an RBAα in data set [3] (setting [8]) of 0.19. In data set [4] (setting [8]), this compound displayed an RBAβ of 1.73 and an RBAβ/RBAα of 9.1. For the same compound, the “further reduction in binding, factor” value in data set [4] (in comparison with entry 3) is listed as “about 10”. Also, the RTAα in data set [5] amounted to 11. Further, the CC50 at 2 h in data set [6] (intact hepatocytes) was above 600 µM.

Consider `C[C@]12CC[C@H](c3ccc(O)cc3Cl)CC1CC[C@@H]2O` (stereo partly drawn) [Entry 8], for which, in data set [2], the RTAβ is 188. Moreover, the RBAα in data set [3] (setting [8]) is on record as 55.3. The RTAα in data set [5] amounted to 88.

`Cc1cc(O)ccc1[C@H]1CC[C@@]2(C)C(CC[C@@H]2O)C1` (stereo partly drawn) [Entry 9] returned an RTAβ in data set [2] of 149. The RBAα in data set [3] (setting [8]) is on record as 2.8. Moreover, in data set [4] (setting [8]), the RBAβ was 33.6 and the RBAβ/RBAα was determined as 11.9. Further, the RTAα in data set [5] is given as −9.7.

As to `C[C@]12CC=C(c3cc(F)c(O)cc3F)CC1CC[C@@H]2O` (stereo partly drawn) [Entry 16], the RBAα in data set [3] (setting [9]) is 0.44. In addition, in data set [4] (setting [10]), the RBAβ/RBAα is listed as 5.1. Besides, the RBAβ in data set [4] (setting [9]) is listed as 2.6.

On to `C[C@]12CCC(c3cc(F)c(O)cc3F)=CC1CC[C@@H]2O` (stereo partly drawn) [Entry 17], for which the RBAα in data set [3] (setting [9]) turned out to be 0.38. Also, the RBAβ/RBAα in data set [4] (setting [10]) is on record as 6.8. The RBAβ in data set [4] (setting [9]) came out at 3.3.

In the case of `C[C@]12CC=C(c3ccc(O)cc3Cl)CC1CC[C@@H]2O` (stereo partly drawn) [Entry 19], in data set [2], the “Ratio RTAβ/RTAα” value came to 1.6 and the RTAβ is given as 157. In addition, the RBAα in data set [3] (setting [9]) is listed as 60. The RBAβ/RBAα in data set [4] (setting [10]) is recorded as 2.0. In addition, the RBAβ in data set [4] (setting [9]) is 118. Besides, the RTAα in data set [5] was found to be 120.

Take `C[C@]12CCC(c3ccc(O)cc3Cl)=CC1CC[C@@H]2O` (stereo partly drawn) [Entry 20]: in data set [2], the “Ratio RTAβ/RTAα” value is on record as 2.1 and the RTAβ came to 188. Further, the RBAα in data set [3] (setting [9]) came out at 195. In addition, in data set [4] (setting [10]), the RBAβ/RBAα is 1.7. The RBAβ in data set [4] (setting [9]) was found to be 331. Moreover, the RTAα in data set [5] came to 98.

As for `C[C@]12CC=C(c3ccc(O)cc3CCSCc3ccccc3)CC1CC[C@@H]2O` (stereo partly drawn) [Entry 25], the RBAα in data set [3] (setting [9]) worked out at 0.32. In addition, the RBAβ/RBAα in data set [4] (setting [10]) amounted to 2.2. Further, in data set [4] (setting [9]), the RBAβ is on record as 0.76.

In the case of `C[C@]12CCC(c3ccc(O)cc3CCSCc3ccccc3)=CC1CC[C@@H]2O` (stereo partly drawn) [Entry 26], in data set [2], the “Ratio RTAβ/RTAα” value stood at 2.2 and the RTAβ is given as 15.6. Besides, in data set [3] (setting [9]), the RBAα stood at 0.31. The RBAβ/RBAα in data set [4] (setting [10]) was found to be 0.86. In data set [4] (setting [9]), the RBAβ was 0.27. This compound yielded an RTAα in data set [5] of 6.7.

As to `C[C@]12CC[C@](O)(c3ccc(O)cc3)CC1CC[C@@H]2O` (stereo partly drawn) [Entry 27], in data set [3] (setting [11]), the RBAα came out at 0.01. In data set [4] (setting [11]), this compound yielded an RBAβ/RBAα of 10 and an RBAβ of 0.1.

In data set [3] (setting [11]), `C[C@]12CC[C@](O)(c3ccc(O)c(F)c3)CC1CC[C@@H]2O` (stereo partly drawn) [Entry 28] gave an RBAα of 0.009. In data set [4] (setting [11]), this compound displayed an RBAβ/RBAα of 13 and an RBAβ of 0.12.

As to `C[C@]12CC[C@](O)(c3ccc(O)cc3F)CC1CC[C@@H]2O` (stereo partly drawn) [Entry 29], the RBAα in data set [3] (setting [11]) came to 0.17. In addition, the “decrease in binding affinity” value in data set [4] (9-hydroxy compound compared to the saturated analog) was found to be 37 fold. In data set [4] (setting [11]), this compound yielded an RBAβ/RBAα of 21 and an RBAβ of 3.6.

On to `C[C@]12CC[C@](O)(c3cc(F)c(O)c(F)c3)CC1CC[C@@H]2O` (stereo partly drawn) [Entry 30], for which, in data set [3] (setting [11]), the RBAα is 0.005. In data set [4] (setting [11]), this compound registered an RBAβ/RBAα of 4.6 and an RBAβ of 0.023.

`C[C@]12CC[C@@H]3c4ccc(O)cc4CC[C@H]3[C@@H]1CC[C@@H]2O` [Estradiol, 17β-estradiol, reference compound] came in with an RTAβ in data set [2] of 100. The CC50 at 2 h in data set [6] was in the range of 400 to 450 µM.

As for `N#Cc1cc(-c2ccc(O)c(F)c2)cc2ccc(O)cc12` [WAY 202196], the “binding affinity ERβ/ERα ratio” value in data set [1] was 78.
